Assay results: PubChem BioAssay AID434942 (Johns Hopkins Ion Channel Center, 2010)

Target: Short transient receptor potential channel 4 (Mus musculus) (UniProt Q9QUQ5)
Experiment: mouse TRPC4 channel inhibitors, dose response, cell-based, HEK293 TRPC4/mu-opioid, Fluo-4 calcium (AID 434942);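 further: potency of inhibitors blocking the DAMGO-evoked TRPC4 calcium rise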
Conditions: HEK293 TRPC4/mu-opioid cells, DAMGO-evoked Fluo-4 calcium ratio

Sequence of Short transient receptor potential channel 4 (Mus musculus) (Q9QUQ5 whole entry, looked up): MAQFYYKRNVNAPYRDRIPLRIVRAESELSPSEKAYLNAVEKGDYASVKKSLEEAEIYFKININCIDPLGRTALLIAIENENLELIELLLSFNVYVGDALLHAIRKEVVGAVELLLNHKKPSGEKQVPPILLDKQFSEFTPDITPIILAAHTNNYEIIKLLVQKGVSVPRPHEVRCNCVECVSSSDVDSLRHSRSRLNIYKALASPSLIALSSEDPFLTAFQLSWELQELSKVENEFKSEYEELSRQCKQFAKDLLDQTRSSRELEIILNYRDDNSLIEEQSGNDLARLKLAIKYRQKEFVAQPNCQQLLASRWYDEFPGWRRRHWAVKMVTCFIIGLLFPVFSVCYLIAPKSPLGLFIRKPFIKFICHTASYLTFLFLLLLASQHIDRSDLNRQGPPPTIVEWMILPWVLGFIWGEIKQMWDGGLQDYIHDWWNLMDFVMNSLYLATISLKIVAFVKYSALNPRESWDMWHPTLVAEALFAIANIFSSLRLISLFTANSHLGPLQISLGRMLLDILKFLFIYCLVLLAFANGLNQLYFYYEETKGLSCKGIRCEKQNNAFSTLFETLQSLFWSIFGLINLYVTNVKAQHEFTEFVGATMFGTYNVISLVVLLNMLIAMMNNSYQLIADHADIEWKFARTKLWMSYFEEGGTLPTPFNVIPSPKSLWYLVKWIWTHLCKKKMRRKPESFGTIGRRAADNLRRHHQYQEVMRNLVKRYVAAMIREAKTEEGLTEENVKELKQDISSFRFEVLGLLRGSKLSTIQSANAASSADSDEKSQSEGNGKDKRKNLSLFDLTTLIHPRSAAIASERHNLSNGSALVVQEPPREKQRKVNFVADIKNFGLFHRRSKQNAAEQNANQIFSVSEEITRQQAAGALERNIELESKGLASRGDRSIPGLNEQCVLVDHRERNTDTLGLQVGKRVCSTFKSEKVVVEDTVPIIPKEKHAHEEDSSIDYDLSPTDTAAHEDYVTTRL

| SMILES | IC50 [µM] |
| --- | --- |
| CC(=O)Nc1ccc(C2(c3ccc(NC(C)=O)cc3)C(=O)Nc3ccccc32)cc1 | 1.5 |
| CC1Cc2ccccc2N1C(=O)CSc1nc2c(c(=O)n(C)c(=O)n2C)n1Cc1ccccc1 (configuration not stated) | 2.11 |
